From patent US9745299B2, “Substituted tricyclic benzimidazoles as kinase inhibitors” (SELVITA SA, priority 2012, dated 2017)

Tests used:
CDK8/CyclinC = biological target: T1, CDK8/CyclinC (Homo sapiens, UniProt P49336); test: ADP-Glo Kinase Assay, CDK8/CyclinC; format: biochemical; conditions: read-out: % inhibition at 1 μM CDK8/CyclinC; further: ATP at apparent Km (53 µM)
T1 construct: purchased ProQinase, Freiburg, Germany
Experimental: (§1) Testing of the compounds described in this invention was carried out using the ADP-Glo™ Kinase Assay from Promega Corporation (Madison, Wis., USA).
(§2) The ADP-Glo™ Kinase Assay is a luminescent ADP detection assay to measure kinase activity by quantifying the amount of ADP produced during a kinase reaction. The kinase assay is performed in kinase assay buffer (5 mM MOPS, pH 7.5, 5 mM MgCl2, 0.4 mM EDTA, 1.5 mM DTT). Test samples initially dissolved in DMSO at 10 mM were diluted with the assay buffer to 1000 nM. A 30 μL volume/well of a mixture of substrates containing ATP (final ATP concentration in each kinase assay was equal to its apparent ATP Km).
(§3) The assay was performed in two steps: first, after the kinase reaction, an equal volume of ADP-Glo™ Reagent was added to terminate the kinase reaction and deplete the remaining ATP. Second, the Kinase Detection Reagent was added to simultaneously convert ADP to ATP and allowed the newly synthesized ATP to be measured using a luciferase/luciferin reaction. The luminescent signal generated was proportional to the ADP concentration produced and was correlated with kinase activity.

CDK9/CyclinT = biological target: T2, CDK9/CyclinT (Homo sapiens, UniProt P50750); test: ADP-Glo Kinase Assay, CDK9/CyclinT; format: biochemical; conditions: read-out: % inhibition at 1 μM CDK9/CyclinT; further: ATP at apparent Km (26 µM)
T2 construct: purchased Proqinase, Freiburg, Germany
Experimental: as §1, §2, §3

CDK2/CyclinE = biological target: T3, CDK2/CyclinE (Homo sapiens, UniProt P24941); test: ADP-Glo Kinase Assay, CDK2/CyclinE; format: biochemical; conditions: read-out: % inhibition at 1 μM CDK2/CyclinE
T3 construct: purchased Millipore, Billerica, Mass., USA
Experimental: as §1, §2, §3

HCT116 cells = test: MTS viability assay, HCT116; format: cell-based; conditions: Homo sapiens, HCT-116, HCT116, 72 hour incubation, read-out: IC50 [μM] HCT116 ED50
Text: (§4) The viability of CDK8 expressing cells can be evaluated using a tetrazolium salt reduction cell-based assay. In viable cells this colorimetric assay can measure mitochondrial reduction of a tetrazolium component (MTS) into an […] formazan product. For MTS viability assay, human colon cancer cell lines were used (SW480 and HCT116 cell lines), containing elevated levels of CDK8 protein and highly dependent on its expression for proliferation [see, Firenstein et al. Nature 455 (25):547-551, (2008)]. These cell lines were used to determine the activity of the compounds provided herein to inhibit CDK8 in intact cells. Human tumor cell lines were obtained from ATCC (Rockville Md. USA). In each case, and by methods known to those practiced in the art of cell culture, vaiability was measured after 72 hour incubation with the compounds provided herein using a standard MTS protocol (CellTiter 96® AQueous Non-Radioactive Cell Proliferation Assay).
(§5) Briefly, cells were plated at 10,000-20,000 cells per well in DMEM medium supplemented with 10% fetal bovine serum. The compound plate was set up by aliquoting into column 1 of a 96-well plate, the negative control (DMSO), aliquoting into column 12 the positive control, and titrating the test compound in serial dilutions into columns 2-11. An aliquot from each well of the compound plate was transferred to the plated cells and then incubated at 37° C. in 5% CO2. 20 μL of MTS tetrazolium was added to each well of optical plate and the cells were incubated at 37° C. in 5% CO2 for 2 hours. The absorbance was measured at 490 nm using a microplate reader.

SW480 cells = test: MTS viability assay, SW480; format: cell-based; conditions: Homo sapiens, SW480, 72 hour incubation, read-out: IC50 [μM] SW-480 ED50
Text: as §4, §5

T2 sequence (P50750 whole entry): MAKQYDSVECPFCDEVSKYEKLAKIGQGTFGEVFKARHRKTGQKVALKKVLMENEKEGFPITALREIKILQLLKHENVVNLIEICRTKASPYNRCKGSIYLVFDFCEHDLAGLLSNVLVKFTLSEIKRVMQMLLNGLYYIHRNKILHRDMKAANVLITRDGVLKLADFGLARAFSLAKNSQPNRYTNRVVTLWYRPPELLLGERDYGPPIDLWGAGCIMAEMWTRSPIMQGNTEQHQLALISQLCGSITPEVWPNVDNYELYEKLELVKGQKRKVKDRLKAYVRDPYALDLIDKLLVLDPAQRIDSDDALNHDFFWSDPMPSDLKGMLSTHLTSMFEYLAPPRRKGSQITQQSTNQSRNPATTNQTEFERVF
T2 sequence (O60563 whole entry partner): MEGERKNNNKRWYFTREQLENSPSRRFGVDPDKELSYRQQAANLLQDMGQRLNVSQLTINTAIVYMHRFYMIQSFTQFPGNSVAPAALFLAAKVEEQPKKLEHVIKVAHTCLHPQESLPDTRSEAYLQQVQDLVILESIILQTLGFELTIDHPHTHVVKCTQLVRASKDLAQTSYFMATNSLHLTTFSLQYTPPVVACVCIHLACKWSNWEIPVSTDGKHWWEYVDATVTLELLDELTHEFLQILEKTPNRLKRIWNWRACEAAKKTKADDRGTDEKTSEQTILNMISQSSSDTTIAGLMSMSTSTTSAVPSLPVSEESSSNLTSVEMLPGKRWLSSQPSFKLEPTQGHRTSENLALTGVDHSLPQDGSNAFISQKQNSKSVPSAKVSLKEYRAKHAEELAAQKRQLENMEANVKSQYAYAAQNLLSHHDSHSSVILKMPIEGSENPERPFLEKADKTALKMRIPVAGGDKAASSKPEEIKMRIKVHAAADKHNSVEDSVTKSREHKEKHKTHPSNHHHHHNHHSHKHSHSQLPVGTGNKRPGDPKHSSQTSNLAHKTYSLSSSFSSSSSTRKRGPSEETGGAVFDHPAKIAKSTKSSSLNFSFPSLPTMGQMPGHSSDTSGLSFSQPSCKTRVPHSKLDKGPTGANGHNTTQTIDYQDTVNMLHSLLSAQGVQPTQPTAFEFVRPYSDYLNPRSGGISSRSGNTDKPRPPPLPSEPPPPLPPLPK
T1 sequence (P49336 whole entry): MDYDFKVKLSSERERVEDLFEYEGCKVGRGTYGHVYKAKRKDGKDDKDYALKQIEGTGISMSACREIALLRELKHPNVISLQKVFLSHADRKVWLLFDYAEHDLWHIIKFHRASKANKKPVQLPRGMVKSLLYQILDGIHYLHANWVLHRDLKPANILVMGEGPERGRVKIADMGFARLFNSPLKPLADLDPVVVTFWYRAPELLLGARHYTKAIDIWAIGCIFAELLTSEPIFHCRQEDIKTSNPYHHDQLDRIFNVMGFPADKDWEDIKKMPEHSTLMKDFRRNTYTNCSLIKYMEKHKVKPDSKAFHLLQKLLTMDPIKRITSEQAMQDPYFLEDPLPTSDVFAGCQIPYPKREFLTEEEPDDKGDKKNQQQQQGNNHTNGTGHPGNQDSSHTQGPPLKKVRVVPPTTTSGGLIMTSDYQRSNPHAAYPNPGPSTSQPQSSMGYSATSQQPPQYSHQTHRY
T1 sequence (P24863 whole entry partner): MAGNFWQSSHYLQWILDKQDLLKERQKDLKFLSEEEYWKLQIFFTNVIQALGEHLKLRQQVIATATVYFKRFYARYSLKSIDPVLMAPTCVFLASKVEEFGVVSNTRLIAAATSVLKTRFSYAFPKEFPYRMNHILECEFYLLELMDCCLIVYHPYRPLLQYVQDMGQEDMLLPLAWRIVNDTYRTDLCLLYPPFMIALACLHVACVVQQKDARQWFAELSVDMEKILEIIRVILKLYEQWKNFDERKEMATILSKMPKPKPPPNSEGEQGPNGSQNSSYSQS

inhibition at 1 µM (CDK8/CyclinC) [%] | inhibition at 1 µM (CDK9/CyclinT) [%] | inhibition at 1 µM (CDK2/CyclinE) [%] | IC50 (HCT116 cells) [µM] | IC50 (SW480 cells) [µM] | Structure (SMILES)
82 | 42 | 33 | 1.3 | 0.5 | NC1CCN(c2nc3c(Br)c(Br)c(Br)c4c3n2CCC4)CC1 [Example 1AG]
 |  |  | 5.3 | 1.8 | Cc1c(Br)c(Br)c2c3c1nc(N[C@H]1CCNC1)n3CCC2 [Example 1AL]
90 | 12 |  | 0.2 | 1.1 | CC1CCc2c(Br)c(Br)c(Br)c3nc(N4CCNCC4)n1c23 (centres unmarked) [Example 1AU]
57 | 41 | 0 |  |  | Brc1c(Br)c2c3c(nc(N[C@H]4CCCNC4)n3CCC2)c1Br [Example 1AW]
61 |  |  | 1.6 |  | Cc1c(Br)c(Br)c2c3c1nc(N1CCCNCC1)n3CCC2 [Example 1AZ]
 |  |  | 1.3 | 0.5 | N[C@@H]1CCCC[C@H]1Nc1nc2c(Br)c(Br)c(Br)c3c2n1CCC3 [Example 1B]
 |  |  | 1.5 |  | NC1CCCN(c2nc3c(Br)c(Br)c(Br)c4c3n2CCC4)C1 (centres unmarked) [Example 1I]
 |  |  | 0.5 |  | Brc1c(Br)c2c3c(nc(NC4CCNCC4)n3CCC2)c1Br [Example 1J]
94 | 26 | 12 |  |  | O[C@@H]1CCN(c2nc3c(Br)c(Br)c(Br)c4c3n2CCC4)C1 [Example 3AC]
75 | -9 | 0 |  |  | Cc1c(Br)c(Br)c2c3c1nc(N1CCN(C)CC1)n3CCC2 [Example 3AK]
76 | 18 |  |  |  | CN(C)C1CCN(c2nc3c(Br)c(Br)c(Br)c4c3n2CCC4)C1 (centres unmarked) [Example 3AL]
85 | 21 | 4 |  |  | O[C@H]1CCN(c2nc3c(Br)c(Br)c(Br)c4c3n2CCC4)C1 [Example 3AN]
93 | 22 | 16 |  |  | OC1CCN(c2nc3c(I)c(Br)c(Br)c4c3n2CCC4)CC1 [Example 3AO]
64 | 3 | 3 |  |  | Brc1c(Br)c2c3c(nc(NC4CCCCC4)n3CCC2)c1Br [Example 3E]
80 |  |  |  |  | Brc1c(Br)c2c3c(nc(N4CCOCC4)n3CCC2)c1Br [Example 3G]
 |  |  | 2.2 |  | CN(C)CCNc1nc2c(Br)c(Br)c(Br)c3c2n1CCC3 [Example 3K]
58 | 18 |  |  |  | CC1(C)CN(c2nc3c(Br)c(Br)c(Br)c4c3n2CCC4)CCN1 [Example 3N]
75 | 0 | 8 |  |  | COC1CCN(c2nc3c(Br)c(Br)c(Br)c4c3n2CCC4)CC1 [Example 4A, 7,8,9-tribromo-2-(4-methoxypiperidin-1-yl)-5,6-dihydro-4H-imidazo[4,5,1-ij]quinoline]
66 |  |  |  |  | Cc1c(Br)c(Br)c2c3c1nc(C1CCN(C(C)C)CC1)n3CCC2 [Example 7D]

Further lines, the molecule ahead of its results:

Structure (SMILES) | inhibition at 1 µM (CDK8/CyclinC) [%] | inhibition at 1 µM (CDK9/CyclinT) [%] | inhibition at 1 µM (CDK2/CyclinE) [%] | IC50 (HCT116 cells) [µM] | IC50 (SW480 cells) [µM]
N[C@@H]1CCN(c2nc3c(Br)c(Br)c(Br)c4c3n2CCC4)C1 [Example 1AE] | 97 | 61 | 44 | 0.3 | 1.1
NCC1CN(c2nc3c(Br)c(Br)c(Br)c4c3n2CCC4)CCO1 (centres unmarked) [Example 1AF] |  |  |  | 1.3 | 1.8
Cc1c(Br)c(Br)c2c3c1nc(N1CC[C@@H](N)C1)n3CCC2 [Example 1AK] | 93 | 2 | 0 | 1.7 | 1.8
COc1c(Br)c2c3c(nc(N4CCNCC4)n3CCC2)c1Br [Example 1AN] | 61 | 10 |  | 2.4 | 
Cc1c(Br)c(Br)c2c3c1nc(N1CCC(N)CC1)n3CCC2 [Example 1AP] | 65 | 15 |  |  | 
CC1CNCCN1c1nc2c(Br)c(Br)c(Br)c3c2n1CCC3 (centres unmarked) [Example 1E] | 89 | 20 | 2 | 1.9 | 2.7
N[C@H]1CCN(c2nc3c(Br)c(Br)c(Br)c4c3n2CCC4)C1 [Example 1G] | 96 | 45 | 29 | 0.7 | 1.1
NCC1CCCN1c1nc2c(Br)c(Br)c(Br)c3c2n1CCC3 (centres unmarked) [Example 1H] | 67 | 8 | 0 |  | 
Brc1c(Br)c2c3c(nc(NC4CCNC4)n3CCC2)c1Br (centres unmarked) [Example 1L] | 81 | 9 | 19 | 1.1 | 1.4
NC1CCCN(c2nc3c(Br)c(Br)c(Br)c4c3n2CCC4)CC1 (centres unmarked) [Example 1M] | 59 | 0 | 6 | 1.1 | 1.5
Brc1cc2nc(N3CCNCC3)n3c2c(c1Br)CCC3 [Example 1N] | 49 |  |  | 4.3 | 
Cc1c(Br)c(Br)c2c3c1nc(NCCN)n3CCC2 [Example 1O] |  |  |  | 1.3 | 
Cc1c(Br)c2c3c(nc(NCCN)n3CCC2)c1Br [Example 1P] |  |  |  | 1.4 | 
Cc1c(Br)c(Br)c2nc(N3CCNCC3)n3c2c1CCC3 [Example 1S] | 54 | 4 |  | 1.7 | 2.5
NCCNc1nc2c([N+](=O)[O-])c(Br)c(Br)c3c2n1CCC3 [Example 1U] |  |  |  | 1.6 | 
Cc1c(Br)c(Br)c2c3c1nc(N1CCNC(C)C1)n3CCC2 (centres unmarked) [Example 3AH] | 76 | 0 | 0 |  | 
CCN(CC)c1nc2c(C)c(Br)c(Br)c3c2n1CCC3 [Example 3AP] | 81 | 9 |  |  | 
Cc1c(Br)c(Br)c2c3c1nc(N1CCSCC1)n3CCC2 [Example 3AR] | 75 |  |  |  | 
Cc1c(Br)c(Br)c2c3c1nc(N1CCN[C@H](C)C1)n3CCC2 [Example 3AT] | 82 |  |  |  | 
Cc1c(Br)c(Br)c2c3c1nc(N1CCOCC1)n3CCC2 [Example 3AU] | 76 |  |  |  | 
Brc1c(Br)c2c3c(nc(Nc4ccncc4)n3CCC2)c1Br [Example 3B] | 45 |  |  |  | 
Brc1c(Br)c2c3c(nc(Nc4ccccc4)n3CCC2)c1Br [Example 3C] | 59 |  |  |  | 
OCCCNc1nc2c(Br)c(Br)c(Br)c3c2n1CCC3 [Example 3F] | 67 |  |  |  | 
Brc1c(Br)c2c3c(nc(NCCCN4CCCC4)n3CCC2)c1Br [Example 3L] | 54 | 6 |  |  | 
CC1CCCN1c1nc2c(I)c(Br)c(Br)c3c2n1CCC3 (centres unmarked) [Example 3S] | 89 | 16 | 7 |  | 
OCC1CCCN(c2nc3c(Br)c(Br)c(Br)c4c3n2CCC4)C1 (centres unmarked) [Example 3U] | 92 | 24 | 9 |  | 
CCN(CC)c1nc2c(I)c(Br)c(Br)c3c2n1CCC3 [Example 3X] | 92 | 41 | 9 |  | 
Nc1nc2c(I)c(Br)c(Br)c3c2n1CCC3 [Example 3Y] | 69 | 17 | 21 |  | 
